In PMC12379159 (Journal of Natural Products, 2025):
Substitutions are numbered along the chain they refer to. Like-named read-outs stand apart in the source and are kept apart here.

Experiments:
RORγ = test system: RORγ; design: method as in numbers not given; settings: Figure 4, collected from the literature; ref numbers not given; cited from earlier work
Gal4-hRORγ = molecular target: T1, Gal4-hRORγ (Homo sapiens, UniProt P51449); experiment: Gal4-RORγ mammalian one-hybrid luciferase assay; assay type: cell-based; settings: HEK293 cells; for IC50: 18 h treatment, up to 5 μM
T1 construct: Encodes for a hRORγ-LBD:Gal4-DBD fusion protein; expressed in transfected cells; host or cells: HEK293
T1 sequence (P51449 269-508 limits assumed): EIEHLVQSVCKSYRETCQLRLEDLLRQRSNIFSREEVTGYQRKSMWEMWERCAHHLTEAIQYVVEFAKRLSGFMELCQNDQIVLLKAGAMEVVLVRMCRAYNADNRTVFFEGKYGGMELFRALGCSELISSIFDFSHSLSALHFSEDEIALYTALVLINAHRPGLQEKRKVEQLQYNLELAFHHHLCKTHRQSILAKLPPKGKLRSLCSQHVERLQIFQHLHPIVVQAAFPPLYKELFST
Description: (§1) For luciferase assays, 8 × 10^6 HEK293 cells were seeded on 150 mm cell culture dishes and incubated for 5 h. Afterward, cells were transfected with the calcium phosphate coprecipitation method using 5 μg of the nuclear receptor (Gal4-hRORγ or full-length human RORγ), 5 μg of a luciferase reporter (pTK-MH100 × 4-LUC for Gal4-hRORγ experiments or RORE-LUC for full-length human RORγ experiments) and 3 μg eGFP-N1 (for assessing transfection efficiency) plasmid DNA and incubated overnight. […] The medium was changed the following day, and cells were further incubated for another four to 5 h before trypsin/EDTA was added to detach them from the dishes. […] RLUs were normalized to relative fluorescence units (RFU) to account for differences in cell number and transfection efficiency and then normalized to the vehicle control. Results are expressed as fold activation relative to the vehicle control.
(§2) Concentration–response data were analyzed in GraphPad Prism version 10 by three-parameter logistic nonlinear regression, with the Hill slope constrained to a theoretical value of −1.0. An IC50 value was determined only for compounds yielding a statistically reliable fit. […] In these cases, only the maximal inhibition achieved at the highest tested concentration (I max(%) at 5 μM) is reported, calculated as follows: Imax(%)=(1−Bottom/Top)×100 (“top” = baseline activity measured at the lowest concentration, “bottom” = residual activity observed at the highest concentration, corresponding to the maximal inhibitory effect).

hRORγ LBD = molecular target: T2, hRORγ LBD (Homo sapiens, UniProt P51449); experiment: Thermal stability by nano differential scanning fluorimetry (nanoDSF); assay type: binding; settings: RORγ-LBD with 4 equiv ligand vs without ligand; mean ± SD
T2 construct: His tag (N, cleaved yes); made in house; host or cells: Escherichia coli BL21 DE3
T2 sequence (P51449 264-518): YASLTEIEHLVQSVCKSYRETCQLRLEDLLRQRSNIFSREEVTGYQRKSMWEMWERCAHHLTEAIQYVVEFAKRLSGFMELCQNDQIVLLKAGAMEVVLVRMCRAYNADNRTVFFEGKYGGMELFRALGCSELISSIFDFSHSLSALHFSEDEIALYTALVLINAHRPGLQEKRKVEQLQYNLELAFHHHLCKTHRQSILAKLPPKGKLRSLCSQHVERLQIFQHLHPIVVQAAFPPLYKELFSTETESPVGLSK
Description: Soluble proteins were purified on Ni Hitrap FFcrude column (Cytiva), followed by His tag removal by thrombin (MP Biomedicals) cleavage and by size exclusion chromatography on HiLoad Superdex200 column (Cytiva) equilibrated in 20 mM Tris-HCl pH 7.5, 150 mM NaCl, 1 mM TCEP (Hampton Research). Purity and homogeneity of the hRORγ LBD were assessed by SDS-PAGE. The purified protein was concentrated to 0.5–1.0 mg/mL with an Amicon Ultra 10 kDa MWCO. The aliquots of purified LBD were incubated with 4 equiv ligands or vehicle for thermal stability experiments.
Fluorescence-based thermal experiments were performed using a Prometheus NT.48 (NanoTemper Technologies, Germany) with grade standard capillaries containing 10 μL of RORγLBD with different ligands. […] NanoTemper PR. Stability Analysis v1.0.2 was used to fit the data and determine the melting temperatures Tm.

[1] = test system: Il17a and Il17f (Il17a/f); experiment: RT-qPCR of Il17a and Il17f in EL-4-mRORγt cells; assay type: cell-based, murine; settings: then 4.5-h PMA and ionomycin
Description: For RT-qPCR assays, 5 × 10^5 EL-4-mRORγt cells were seeded in 500 μL complete DMEM per well of a 24-well plate and treated with the vehicle control, the positive control, or the compounds of interest. After incubation for 20–24 h, cells were stimulated with Cell Activation Cocktail (PMA: 40.5 μM, ionomycin: 669.3 μM; 500X) for 4.5 h. Afterward, total RNA was isolated using the innuPREP RNA Mini Kit 2.0 according to the manufacturer’s instructions. According to the manufacturer’s instructions, 1 μg RNA was reverse-transcribed into cDNA using the High-Capacity cDNA Reverse Transcription Kit. RT-qPCR was performed using the Luna Universal qPCR Master Mix on a LightCycler 480 (Roche Diagnostics, Rotkreuz, Switzerland) according to the manufacturer’s instructions. […] Livak’s 2−ΔΔCt method was employed to determine the expression levels of RORγ target genes. This involved normalizing the target gene expression to the expression levels of the control gene 18s, followed by further normalization to the vehicle control.

full-length human RORγ = molecular target: T3, full-length human RORγ (Homo sapiens, UniProt P51449); experiment: Full-length RORγ luciferase assay (RORE-LUC reporter); assay type: cell-based
T3 construct: Encodes for the full-length human RORγ; expressed in transfected cells; host or cells: HEK293
T3 sequence (P51449 1-518): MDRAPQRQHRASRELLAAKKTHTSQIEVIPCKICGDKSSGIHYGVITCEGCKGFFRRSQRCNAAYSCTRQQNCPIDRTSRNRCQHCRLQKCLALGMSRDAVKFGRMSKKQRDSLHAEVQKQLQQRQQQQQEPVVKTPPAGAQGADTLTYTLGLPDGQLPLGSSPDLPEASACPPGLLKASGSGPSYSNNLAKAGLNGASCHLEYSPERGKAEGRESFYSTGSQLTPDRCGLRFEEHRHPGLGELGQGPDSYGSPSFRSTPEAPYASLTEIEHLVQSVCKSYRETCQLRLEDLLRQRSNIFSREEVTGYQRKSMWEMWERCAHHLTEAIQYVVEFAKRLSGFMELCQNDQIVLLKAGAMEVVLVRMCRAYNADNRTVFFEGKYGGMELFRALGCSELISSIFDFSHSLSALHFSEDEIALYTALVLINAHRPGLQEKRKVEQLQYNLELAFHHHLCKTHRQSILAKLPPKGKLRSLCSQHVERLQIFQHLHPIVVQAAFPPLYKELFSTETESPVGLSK
Description: as §1, §2

Gal4-RORγ H479L = molecular target: T4, Gal4-RORγ H479L (Homo sapiens, UniProt P51449, H479L); experiment: Gal4-RORγ H479L mutant luciferase assay; settings: 5 μM
T4 sequence (P51449 269-508 H479L limits assumed): T1 sequence (P51449 269-508 limits assumed) with H211L
Description: Gal4-hRORγ H323A and H479L mutants were generated using the QuikChange Lightning Site-Directed Mutagenesis Kit according to the manufacturer’s instructions. Briefly, 10 ng template DNA (Gal4-hRORγ) was PCR-amplified with the respective mutagenic forward and reverse primers listed in Table S3, which were designed using the QuikChange Primer Design tool (https://www.agilent.com/store/primerDesignProgram.jsp). […] Two μL of the PCR product were then transformed into XL1-Blue competent E. coli according to a protocol provided by NEB. […] After centrifuging the main culture at 5691g for 10 min, the supernatant was decanted, and plasmid preparation was performed using the PureLink HiPure Plasmid Midiprep Kit according to the manufacturer’s instructions. DNA yields and purities were checked using a NanoDrop 2000c (Thermo Fisher Scientific, Waltham, MA, USA).

[2] = pretreated 20–24 h at indicated concentrations

## CC(C)=CCC[C@H](C)[C@H]1CC[C@H]2C3=C(CC[C@]12C)[C@@]1(C)CC[C@H](O)[C@@](C)(C(=O)O)C1CC3 (stereo partly drawn) [4α-carboxy-4β-methyl-zymosterol]
RORγ
  RORγ inverse agonist or agonist: Agonist

## C=C(C)[C@@H]1CC[C@]2(C=O)CC[C@]3(C)[C@H](CC[C@@H]4[C@@]5(C)CC[C@H](O)C(C)(C)[C@@H]5CC[C@]43C)[C@@H]12 [Betulinaldehyde]
RORγ
  RORγ inverse agonist or agonist: Agonist

## COc1ccc(CC(=O)Nc2cc3oc4ccccc4c3cc2OC)cc1 [Compound 5]
Gal4-hRORγ; 3 μM
  Activity in Gal4-RORγ luciferase assay (initial screen): agonistic activity

## C=C(C)[C@@H]1CC[C@]2(C(=O)O)CC[C@]3(C)[C@H](CC[C@@H]4[C@@]5(C)C/C(=C\c6ccccc6OC)C(=O)C(C)(C)[C@@H]5CC[C@]43C)[C@@H]12 [Compound 15.1]
hRORγ LBD
  ΔTm measured with nano differential scanning fluorimetry: 5.9 ± 0.4 °C
Gal4-hRORγ
  Imax(%) at 5 μM, Gal4-RORγ luciferase assay: 34%
[1]; [2]
  Il17a/f expression: inactive
full-length human RORγ; HEK293 cells
  Imax(%) at 5 μM, full-length RORγ luciferase assay: 24%

## C=C(C)[C@@H]1CC[C@]2(C(=O)O)CC[C@]3(C)[C@H](CC[C@@H]4[C@@]5(C)C/C(=C/c6cccc(I)c6)C(=O)C(C)(C)[C@@H]5CC[C@]43C)[C@@H]12 [Compound 15.2]
hRORγ LBD
  ΔTm measured with nano differential scanning fluorimetry: 2.2 ± 0.5 °C
Gal4-hRORγ
  Imax(%) at 5 μM, Gal4-RORγ luciferase assay: 58%
  IC50: 3.1 µM
[1]; [2]
  Il17a/f expression: significant and concentration-dependent reduction
full-length human RORγ; HEK293 cells
  Imax(%) at 5 μM, full-length RORγ luciferase assay: 55%
Gal4-RORγ H479L
  Activity on Gal4-RORγ H479L vs WT: loss of activity

## C=C(C)[C@@H]1CC[C@]2(C(=O)O)CC[C@]3(C)[C@H](CC[C@@H]4[C@@]5(C)C/C(=C/c6ccccc6)C(=O)C(C)(C)[C@@H]5CC[C@]43C)[C@@H]12 [Compound 15.3]
hRORγ LBD
  ΔTm measured with nano differential scanning fluorimetry: 2.8 ± 0.2 °C
Gal4-hRORγ
  Imax(%) at 5 μM, Gal4-RORγ luciferase assay: 53%
  IC50: 2.7 µM
[1]; [2]
  Il17a/f expression: significant and concentration-dependent reduction
full-length human RORγ; HEK293 cells
  Imax(%) at 5 μM, full-length RORγ luciferase assay: 67%
full-length human RORγ; HEK293 cells, 18 h treatment, up to 5 μM, read-out: IC50, full-length RORγ luciferase assay
  IC50: > 5 µM
full-length human RORγ; exceeds the highest concentration tested, only an estimate, read-out: Estimated IC50, full-length RORγ luciferase assay
  IC50: 5.7 µM
Gal4-RORγ H479L
  Activity on Gal4-RORγ H479L vs WT: loss of activity

## C=C(C)[C@@H]1CC[C@]2(C(=O)OC)CC[C@]3(C)[C@H](CC[C@@H]4[C@@]5(C)C/C(=C/c6ccco6)C(=O)C(C)(C)[C@@H]5CC[C@]43C)[C@@H]12 [Compound 15.4]
hRORγ LBD
  ΔTm measured with nano differential scanning fluorimetry: 1.1 ± 0.2 °C
Gal4-hRORγ
  Imax(%) at 5 μM, Gal4-RORγ luciferase assay: 0%
[1]; [2]
  Il17a/f expression: slightly but significantly up-regulated
full-length human RORγ; HEK293 cells
  Imax(%) at 5 μM, full-length RORγ luciferase assay: 0%
Gal4-RORγ H479L
  Activity on Gal4-RORγ H479L vs WT: remained inactive

## C=C(C)[C@@H]1CC[C@]2(C(=O)NCCCN(C)C)CC[C@]3(C)[C@H](CC[C@@H]4[C@@]5(C)CC[C@H](O)C(C)(C)[C@@H]5CC[C@]43C)[C@@H]12 [Compound 24]
RORγ
  RORγ inverse agonist or agonist: Inverse agonist

## C=C1C[C@]2(C)[C@H]3CC[C@@H]4[C@H]5[C@H](C(=C)C)CC[C@]5(C(=O)NCCCN(C)C)CC[C@@]4(C)[C@]3(C)CC[C@H]2C(C)(C)C1=O [Compound 25]
RORγ
  RORγ inverse agonist or agonist: Inverse agonist

## C[C@@H]1CC[C@@]2(OC1)O[C@H]1C[C@H]3[C@@H]4CC=C5C[C@@H](O)CC[C@]5(C)[C@H]4CC[C@]3(C)[C@H]1[C@@H]2C [Diosgenin]
RORγ
  RORγ inverse agonist or agonist: Inverse agonist

## CC(C)CCC[C@H](CCCC(C)(C)O)[C@H]1CC[C@H]2[C@@H]3CC=C4C[C@@H](O)CC[C@]4(C)[C@H]3CC[C@]12C [Gemini-cholesterol analogue]
RORγ
  RORγ inverse agonist or agonist: Inverse agonist

## OC(c1ccc(-c2ccc(CN3CCN(Cc4ccncc4)CC3)cc2)c(F)c1)(C(F)(F)F)C(F)(F)F [SR2211, reference compound]
[1]; 5 μM, 20–24 h
  Il17a/f expression: significant and reproducible down-regulation

## C[C@H]1[C@H](C)CC[C@]2(C(=O)O)CC[C@]3(C)C(=CC[C@@H]4[C@@]5(C)CC[C@H](O)C(C)(C)[C@@H]5CC[C@]43C)[C@H]12 [Ursolic acid]
RORγ
  RORγ inverse agonist or agonist: Inverse agonist

## C[C@H]1[C@H](C)CC[C@]2(C(=O)O)CC[C@]3(C)C(=CC[C@@H]4[C@@]5(C)CCC(=O)C(C)(C)[C@@H]5CC[C@]43C)[C@H]12 [Ursonic acid]
RORγ
  RORγ inverse agonist or agonist: Inverse agonist
